Source: paper PMC11364845 (Scientific Reports, 2024)

Columns and labels:
[1] = cited from earlier work
[2] = tested on: prostate tumor-bearing TRAMP mice; settings: 30 min dynamic PET, n = 3/group

- Time-dependent blood distribution by dynamic PET: JV versus RO injection [2]: consistent circulation
SMILES: OC[C@H]1OC(O)[C@H](F)[C@@H](O)[C@@H]1O (stereo partly drawn) [^18F-FDG, ^18F-fluorodeoxyglucose]
- Time to peak in circulation and distribute to half its concentration ([1]; after cardiac administration): ≤ 5 s
- Time to reach a plateau in tissues [1]: ≤ 30 min
